This note sets out measurements from patent publication US5502035A, “N-terminus modified analogs of LHRH” (Tap Holdings Inc., priority 1994, dated 1996).

Non-standard residues stand in square brackets, D forms with d. Residues, ends and D or L forms follow the SMILES beside them. *: point of attachment. dAla(benzothien-2-yl) = N[C@H](Cc1cc2ccccc2s1)C(=O)O; Shikimoyl = O=C(C1=C[C@@H](O)[C@@H](O)[C@H](O)C1)*; Tetrahydrofuroyl(2R) = O=C([C@H]1CCCO1)*; dPhe(4-Cl) = N[C@H](Cc1ccc(Cl)cc1)C(=O)O; d2Nal = N[C@H](Cc1ccc2ccccc2c1)C(=O)O; Lys(iPr) = CC(C)NCCCC[C@H](N)C(=O)O; NMeY = CN[C@@H](Cc1ccc(O)cc1)C(=O)O; X10 = Cc1ccc(S(=O)(=O)NNC(=O)*)cc1; dCit = NC(=O)NCCC[C@@H](N)C(=O)O; d3Pal = N[C@H](Cc1cccnc1)C(=O)O; Nicotinoyl = O=C(c1cccnc1)*; βAla = NCCC(=O)O; Sar = CNCC(=O)O

The test concerns the target T1, LHRH (Rattus norvegicus, UniProt P30969).
T1 construct: endogenous in cells; host or cells: rat pituitary cells (own knowledge of the cited Haviv 1989 method)
T1 sequence (P30969 1-327): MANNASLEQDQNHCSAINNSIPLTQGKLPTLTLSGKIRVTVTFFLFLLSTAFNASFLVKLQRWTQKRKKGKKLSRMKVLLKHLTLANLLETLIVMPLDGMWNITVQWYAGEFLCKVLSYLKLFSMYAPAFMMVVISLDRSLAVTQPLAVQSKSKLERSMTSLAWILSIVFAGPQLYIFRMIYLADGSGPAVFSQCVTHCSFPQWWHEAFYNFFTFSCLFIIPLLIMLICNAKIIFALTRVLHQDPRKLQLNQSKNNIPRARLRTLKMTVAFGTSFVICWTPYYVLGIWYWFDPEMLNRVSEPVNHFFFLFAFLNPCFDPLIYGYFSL
As to the kind of experiment: in vitro test for LHRH antagonist potency (pA2). The test is classed as cell-based. As to conditions: negative logarithm of the antagonist concentration required to shift the response curve produced by the agonist leuprolide to two-fold higher concentration. In short, it runs like this:
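Antagonism read against the agonist leuprolide on rat LHRH receptor; value is pA2, the −log of antagonist concentration that doubles the agonist concentration needed for the same response.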
Usually Kb stands for the affinity of an antagonist, worked out from how it opposes an agonist. As for `CC(C)C[C@H](NC(=O)[C@@H](CCCNC(N)=O)NC(=O)[C@H](Cc1ccc(O)cc1)N(C)C(=O)[C@H](CO)NC(=O)[C@@H](Cc1cccnc1)NC(=O)[C@@H](Cc1ccc(Cl)cc1)NC(=O)[C@@H](Cc1ccc2ccccc2c1)NC(=O)[C@H]1CCCO1)C(=O)N[C@@H](CCCNC(=N)N)C(=O)N1CCC[C@H]1C(=O)N[C@H](C)C(N)=O` [Example 77, N-(R)-Tetrahydofur-2-oyl-D2Nal-D4ClPhe-D3Pal-Ser-NMeTyr-DCit-Leu-Arg-Pro-DAlaNH2] ({Tetrahydrofuroyl(2R)}-[d2Nal][dPhe(4-Cl)][d3Pal]S[NMeY][dCit]LRP[dA]-NH2), the Kb was 14.1 pM. On to `CC(C)C[C@H](NC(=O)[C@@H](CCCCNC(=O)c1cccnc1)NC(=O)[C@H](Cc1ccc(O)cc1)N(C)C(=O)[C@H](CO)NC(=O)[C@@H](Cc1cc2ccccc2s1)NC(=O)[C@@H](Cc1ccc(Cl)cc1)NC(=O)CN(C)C(=O)CNC(=O)c1cccnc1)C(=O)N[C@@H](CCCCNC(C)C)C(=O)N1CCC[C@H]1C(=O)N[C@H](C)C(N)=O` [Example 35b, Nic-Gly-Sar-D4ClPhe-DBal-Ser-NMeTyr-DLys(Nic)-Leu-Lys(Isp)-Pro-DAlaNH2] (Nicotinoyl-G[Sar][dPhe(4-Cl)][dAla(benzothien-2-yl)]S[NMeY][dK](Nicotinoyl)L[Lys(iPr)]P[dA]-NH2), for which the Kb was 79.4 pM. For `CC(C)C[C@H](NC(=O)[C@@H](CCCCNC(=O)c1cccnc1)NC(=O)[C@H](Cc1ccc(O)cc1)N(C)C(=O)[C@H](CO)NC(=O)[C@@H](Cc1cccnc1)NC(=O)[C@@H](Cc1ccc(Cl)cc1)NC(=O)[C@@H](Cc1ccc2ccccc2c1)NC(=O)CCNC(=O)C1=C[C@@H](O)[C@@H](O)[C@H](O)C1)C(=O)N[C@@H](CCCCNC(C)C)C(=O)N1CCC[C@H]1C(=O)N[C@H](C)C(N)=O` [Example 6b, N-Shikimyl-3Aminopropionyl-D2Nal-D4ClPhe-D3Pal-Ser-NMeTyr-DLys(N-epsilon-Nicotinyl) -Leu-Lys(N-epsilon-Isopropyl)-Pro-DAlaNH2] ({Shikimoyl-βAla}-[d2Nal][dPhe(4-Cl)][d3Pal]S[NMeY][dK](Nicotinoyl)L[Lys(iPr)]P[dA]-NH2) the value was 15.8 pM; for `CC(C)C[C@H](NC(=O)[C@@H](CCCCNC(=O)c1cccnc1)NC(=O)[C@H](Cc1ccc(O)cc1)N(C)C(=O)[C@H](CO)NC(=O)[C@@H](Cc1cccnc1)NC(=O)[C@@H](Cc1ccc(Cl)cc1)NC(=O)[C@@H](Cc1ccc2ccccc2c1)NC(=O)CNC(=O)[C@@H]1CCCO1)C(=O)N[C@@H](CCCCNC(C)C)C(=O)N1CCC[C@H]1C(=O)N[C@@H](C)C(N)=O` [Example 80, N-(S)-2-Tetrahydrofuroyl-Gly-D2Nal-D4ClPhe-D3Pal-Ser-NMeTyr-DLys(N-epsilon- Nicotinyl) -Leu-Lys(N-epsilon-Isopropyl)-Pro-AlaH2], 12.6 pM; for `CC(C)C[C@H](NC(=O)[C@@H](CCCCNC(=O)c1cccnc1)NC(=O)[C@H](Cc1ccc(O)cc1)NC(=O)[C@H](CO)NC(=O)[C@@H](Cc1cccnc1)NC(=O)[C@@H](Cc1ccc(Cl)cc1)NC(=O)[C@@H](Cc1ccc2ccccc2c1)NC(=O)C1=C[C@@H](O)[C@@H](O)[C@H](O)C1)C(=O)N[C@@H](CCCCNC(C)C)C(=O)N1CCC[C@H]1C(=O)N[C@H](C)C(N)=O` [Example 75, N-Shikimyl-D2Nal-D4ClPhe-D3Pal-Ser-Tyr-DLys(Nic)-Leu-Lys(Isp)-Pro-DAlaNH2] (Shikimoyl-[d2Nal][dPhe(4-Cl)][d3Pal]SY[dK](Nicotinoyl)L[Lys(iPr)]P[dA]-NH2), 11.2 pM. Then `Cc1ccc(S(=O)(=O)NNC(=O)N[C@H](Cc2ccc3ccccc3c2)C(=O)N[C@H](Cc2ccc(Cl)cc2)C(=O)N[C@H](Cc2cccnc2)C(=O)N[C@@H](CO)C(=O)N(C)[C@@H](Cc2ccc(O)cc2)C(=O)N[C@H](CCCCNC(=O)c2cccnc2)C(=O)N[C@@H](CC(C)C)C(=O)N[C@@H](CCCCNC(C)C)C(=O)N2CCC[C@H]2C(=O)N[C@H](C)C(N)=O)cc1` [Example 37e, N-Tosyl-Azagly-D2Nal-D4ClPhe-D3Pal-Ser-NMeTyr-DLys(Nic)-Leu-Lys(Isp)-Pro-DAlaNH2] (X10-[d2Nal][dPhe(4-Cl)][d3Pal]S[NMeY][dK](Nicotinoyl)L[Lys(iPr)]P[dA]-NH2), with 22.4 pM.
